Patent publication US12043600B2, “Microbiocidal compounds” (SYNGENTA CROP PROTECTION AG, priority 2018, dated 2024)

How the values were obtained:
[1] = system: Blumeria graminis f. sp. tritici (Erysiphe graminis f. sp. tritici); assay: Blumeria graminis f. sp. tritici/Wheat/Leaf Disc Preventative (Powdery Mildew on Wheat); type: in vivo; conditions: foliar, wheat leaf disc preventative, compared to untreated control
Method in brief: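 Wheat cv. Kanzler leaf segments on agar sprayed with formulated compound, inoculated with powdery mildew 1 day later and held at 20° C, 60% rh (24 h dark, then 12 h light/12 h dark). Percent disease control versus untreated scored 6-8 days after application.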

[2] = system: Monographella nivalis (Microdochium nivale); assay: Monographella nivalis (Microdochium nivale)/Liquid Culture (Foot Rot Cereals); type: cell-based; conditions: liquid culture, compared to untreated control
Method in brief: (§1)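 Test compound dissolved in DMSO is dispensed first; nutrient broth (potato dextrose) carrying conidia thawed from cryogenic storage follows.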

[3] = system: Puccinia recondita f. sp. tritici; assay: Puccinia recondita f. sp. tritici/Wheat/Leaf Disc Preventative (Brown Rust); type: in vivo; conditions: foliar, 200 ppm, wheat leaf disc preventative, compared to untreated control, read-out: control of Puccinia recondita f. sp. tritici
[4] = system: Phytophthora infestans; assay: whole plant or invertebrate; type: in vivo; conditions: in Solanum lycopersicum, foliar, read-out: control of Phytophthora infestans
[5] = system: Magnaporthe grisea (Pyricularia oryzae); assay: whole plant or invertebrate; type: in vivo; conditions: foliar, read-out: control of Magnaporthe grisea
[6] = system: Thanatephorus cucumeris (Rhizoctonia solani); assay: Thanatephorus cucumeris (Rhizoctonia solani)/Liquid Culture (Foot Rot, Damping-Off); type: cell-based; conditions: liquid culture, compared to untreated control
Procedure: Mycelia fragments of a newly grown liquid culture of the fungus are directly mixed into nutrient broth (PDB potato dextrose broth). After placing a (DMSO) solution of the test compounds into a microtiter plate (96-well format), the nutrient broth containing the fungal material is added.

[7] = system: Plasmopara viticola; assay: whole plant or invertebrate; type: in vivo; conditions: foliar, read-out: control of Plasmopara viticola
[8] = system: Phaeosphaeria nodorum (Septoria nodorum); assay: Phaeosphaeria nodorum (Septoria nodorum)/Wheat/Leaf Disc Preventative (Glume Blotch); type: in vivo; conditions: Parastagonospora nodorum, foliar, wheat leaf disc preventative, compared to untreated control
Method in brief: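 Wheat cv. Kanzler leaf discs on agar were sprayed with formulated compound diluted in water and inoculated with P. nodorum spores 2 days later. Discs kept at 20 °C, 75% rh, 12 h light/dark; percent disease control versus untreated scored 5–7 days after application.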

[9] = system: Glomerella lagenarium (Colletotrichum lagenarium); assay: Glomerella lagenarium (Colletotrichum lagenarium)/Liquid Culture (Anthracnose); type: cell-based; conditions: Colletotrichum orbiculare, liquid culture, compared to untreated control
[10] = system: Mycosphaerella graminicola (Septoria tritici); assay: Mycosphaerella graminicola (Septoria tritici)/Liquid Culture (Septoria Blotch); type: cell-based; conditions: Zymoseptoria tritici; 20 ppm; liquid culture; compared to untreated control
Method in brief: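 Conidia from cryogenic storage mixed into potato dextrose broth and added to microtiter wells already holding DMSO solutions of test compound. Activity expressed as percentage disease control.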

[11] = system: Mycosphaerella arachidis (Cercospora arachidicola); assay: Mycosphaerella arachidis (Cercospora arachidicola)/Liquid Culture (Early Leaf Spot); type: cell-based; conditions: liquid culture, compared to untreated control
Method in brief: as §1

[12] = system: Botryotinia fuckeliana (Botrytis cinerea); assay: Botryotinia fuckeliana (Botrytis cinerea)/Liquid Culture (Gray Mould); type: cell-based; conditions: liquid culture, compared to untreated control
Procedure: Conidia of the fungus from cryogenic storage are directly mixed into nutrient broth (Vogels broth). After placing a (DMSO) solution of test compound into a microtiter plate (96-well format), the nutrient broth containing the fungal spores is added.

[13] = system: Phakopsora pachyrhizi; assay: Phakopsora pachyrhizi/Soybean/Preventative (Soybean Rust); type: in vivo; conditions: foliar, 288 h, 200 ppm, soybean leaf disc preventative, compared to untreated control, read-out: control of Phakopsora pachyrhizi
[14] = system: Puccinia recondita f. sp. tritici; assay: Puccinia recondita f. sp. tritici/Wheat/Leaf Disc Curative (Brown Rust); type: in vivo; conditions: foliar, wheat leaf disc curative, compared to untreated control
Method in brief: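 Curative leaf-disc test on wheat cv. Kanzler segments on agar, spore-inoculated and kept dark at 19° C, 75% rh; formulated compound in water applied 1 day after inoculation. Incubated at 19° C, 75% rh, 12 h light/12 h dark; percent disease control versus untreated scored 6-8 days after application.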

[15] = system: Pyrenophora teres; assay: Pyrenophora teres/Barley/Leaf Disc Preventative (Net Blotch); type: in vivo; conditions: foliar, 200 ppm, barley leaf disc preventative, compared to untreated control, read-out: control of Pyrenophora teres
Method in brief: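 Formulated compound, diluted in water, sprayed onto barley cv. Hasso leaf segments on agar; spore suspension inoculation followed 2 days after application. Results expressed as percentage disease control.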

Row | SMILES | pest or weed control at 200 ppm [1] | inhibition of growth at 20 ppm [2] | pest or weed control at 200 ppm [3] | pest or weed control at 200 ppm [4] | pest or weed control at 200 ppm [5] | inhibition of growth at 20 ppm [6] | pest or weed control at 200 ppm [7] | pest or weed control at 200 ppm [8] | inhibition of growth at 20 ppm [9] | inhibition of growth at 20 ppm [10] | inhibition of growth at 20 ppm [11] | inhibition of growth at 20 ppm [12] | pest or weed control at 200 ppm [13] | melting point | pest or weed control at 200 ppm [14] | pest or weed control at 200 ppm [15]
1 | CO/C=C(\Oc1cc(-n2cc(C3CC3)cn2)ccc1C)C(=O)OC [Compound E-50, methyl (Z)-2-[5-(4-cyclopropylpyrazol-1-yl)-2-methyl-phenoxy]-3-methoxy-prop-2-enoate] | ≥ 80% | ≥ 80% | ≥ 80% | ≥ 80% | ≥ 80% | ≥ 80% | ≥ 80% | ≥ 80% | ≥ 80% | ≥ 80% | ≥ 80% | ≥ 80% | ≥ 50% |  |  | 
2 | CO/C=C(\Oc1cc(-n2cc(C)cn2)ccc1C)C(=O)OC [Compound E-59, methyl (Z)-3-methoxy-2-[2-methyl-5-(4-methylpyrazol-1-yl)phenoxy]prop-2-enoate] | ≥ 80% | ≥ 80% | ≥ 80% | ≥ 80% | ≥ 80% | ≥ 80% | ≥ 80% | ≥ 80% | ≥ 80% | ≥ 80% | ≥ 80% | ≥ 80% | ≥ 50% |  |  | 
3 | C/C=C(\C)c1ccn(-c2ccc(C)c(O/C(=C\OC)C(=O)OC)c2)n1 [Compound E-43, methyl (Z)-3-methoxy-2-[2-methyl-5-[3-[(E)-1-methylprop-1-enyl]pyrazol-1-yl]phenoxy]prop-2-enoate] |  | ≥ 80% | ≥ 80% | ≥ 80% | ≥ 80% | ≥ 80% | ≥ 80% |  | ≥ 80% | ≥ 80% | ≥ 80% | ≥ 80% |  | 115 to 118 °C | ≥ 80% | 
4 | C#Cc1cnn(-c2ccc(C)c(O/C(=C\OC)C(=O)OC)c2)c1 [Compound E-48, methyl (Z)-2-[5-(4-ethynylpyrazol-1-yl)-2-methyl-phenoxy]-3-methoxy-prop-2-enoate] | ≥ 80% | ≥ 80% | ≥ 80% | ≥ 80% |  | ≥ 80% | ≥ 80% | ≥ 80% | ≥ 80% | ≥ 80% | ≥ 80% | ≥ 80% |  |  | ≥ 80% | 
5 | CO/C=C(\Oc1cc(-n2ccc(C(C)C)n2)c(OC)cc1C)C(=O)OC [Compound E-31, methyl (Z)-2-[5-(3-isopropylpyrazol-1-yl)-4-methoxy-2-methyl-phenoxy]-3-methoxy-prop-2-enoate] |  | ≥ 80% | ≥ 80% | ≥ 80% | ≥ 80% | ≥ 80% | ≥ 80% | ≥ 80% | ≥ 80% | ≥ 80% | ≥ 80% | ≥ 80% |  |  | ≥ 80% | 
6 | CO/C=C(\Oc1cc(-n2cc(F)c(C(C)C)n2)ccc1C)C(=O)OC [Compound E-46, methyl (Z)-2-[5-(4-fluoro-3-isopropyl-pyrazol-1-yl)-2-methyl-phenoxy]-3-methoxy-prop-2-enoate] |  | ≥ 80% | ≥ 80% | ≥ 80% | ≥ 80% | ≥ 80% | ≥ 80% |  | ≥ 80% | ≥ 80% | ≥ 80% | ≥ 80% |  | 111 to 113 °C | ≥ 80% | 
7 | CO/C=C(\Oc1cc(-n2ccc(C(F)(F)F)n2)c(OC)cc1C)C(=O)OC [Compound E-32, methyl (Z)-3-methoxy-2-[4-methoxy-2-methyl-5-[3-(trifluoromethyl)pyrazol-1-yl]phenoxy]prop-2-enoate] | ≥ 80% | ≥ 80% | ≥ 80% | ≥ 80% | ≥ 80% | ≥ 80% | ≥ 80% | ≥ 80% | ≥ 80% | ≥ 80% | ≥ 80% | ≥ 80% |  | 130 to 133 °C | ≥ 80% | 
8 | C=C(C)c1ccn(-c2ccc(C)c(O/C(=C\OC)C(=O)OC)c2)n1 [Compound E-65, methyl (Z)-2-[5-(3-isopropenylpyrazol-1-yl)-2-methyl-phenoxy]-3-methoxy-prop-2-enoate] |  | ≥ 80% | ≥ 80% |  | ≥ 80% | ≥ 80% | ≥ 80% | ≥ 80% | ≥ 80% | ≥ 80% | ≥ 80% | ≥ 80% |  | 80 to 84 °C | ≥ 80% | 
9 | CO/C=C(\Oc1cc(C)cc(-n2ccc(C(C)C)n2)c1)C(=O)OC [Compound E-35, methyl (Z)-2-[3-(3-isopropylpyrazol-1-yl)-5-methyl-phenoxy]-3-methoxy-prop-2-enoate] | ≥ 80% | ≥ 80% | ≥ 80% | ≥ 80% | ≥ 80% | ≥ 80% | ≥ 80% |  | ≥ 80% | ≥ 80% | ≥ 80% | ≥ 80% | ≥ 50% |  | ≥ 80% | 
10 | C=Cc1ccn(-c2ccc(C)c(O/C(=C\OC)C(=O)OC)c2)n1 [Compound E-45, methyl (Z)-3-methoxy-2-[2-methyl-5-(3-vinylpyrazol-1-yl)phenoxy]prop-2-enoate] | ≥ 80% | ≥ 80% | ≥ 80% | ≥ 80% | ≥ 80% | ≥ 80% | ≥ 80% | ≥ 80% | ≥ 80% | ≥ 80% | ≥ 80% |  |  | 114 to 117 °C | ≥ 80% | ≥ 80%
